The values below come from patent US11986459B2, “Methods for the treatment of Mycobacterium infections” (University of South Florida, priority 2020, dated 2024).

In general, pIC50 refers to −log10 of the IC50, conventionally taken in molar units. The MIC is the lowest concentration found to suppress growth. The IC50 is the concentration that gives 50% inhibition.

pIC50: −log10 of the molar value. ≈ marks a conversion by molar mass, not a printed value. Read-outs that look alike come from different tables or passages of the source.

In one data set the target is α-glucosidase. The settings on record: literature ref 12; read-out: α-glucosidase inhibition activity IC50; cited from earlier work.
Another data set concerns MRSA. To be noted: literature ref 20; cited from earlier work.
For another data set, the system named is S. typhimurium. To be noted: reported in literature; cited from earlier work.
A further data set concerns M. abscessus (Mab). Kind of data set: M. abscessus (Mab) inhibition. It counts as cell-based, Mycobacterium abscessus. The settings on record: Table 10; pure compounds.
For the next data set, the system named is S. pyogenes. The settings on record: reported in literature; cited from earlier work.
Another data set deals with C. albicans. To be noted: reported in literature; cited from earlier work.
Another data set concerns S. aureus. To be noted: reported in literature; cited from earlier work.
For data set [1], the system named is replicating stage M. tuberculosis (Mtb). The experiment in a line: MIC against replicating Mtb. It counts as cell-based, Mycobacterium tuberculosis. To be noted: for MIC: Mycobacterium tuberculosis.
In the next data set the test system is E. co/i. To be noted: reported in literature; cited from earlier work.
Data set [2] deals with acetylcholinesterase (AchE) (Homo sapiens, UniProt P22303). To be noted: literature ref 13; read-out: IC50 against acetylcholinesterase (AchE); cited from earlier work.
The subject of data set [3] is murine macrophage cell line J774. The experiment in a line: Cytotoxicity assay with J774 macrophages. To be noted: for IC50: Mus musculus.
In a further data set the test system is zebrafish embryos. To be noted: reported in literature; cited from earlier work.
Setting [4] is: Table 10, pure compounds, replicating Mtb, read-out: MIC (Mtb-rep).

acetylcholinesterase (AchE), sequence (P22303 32-614): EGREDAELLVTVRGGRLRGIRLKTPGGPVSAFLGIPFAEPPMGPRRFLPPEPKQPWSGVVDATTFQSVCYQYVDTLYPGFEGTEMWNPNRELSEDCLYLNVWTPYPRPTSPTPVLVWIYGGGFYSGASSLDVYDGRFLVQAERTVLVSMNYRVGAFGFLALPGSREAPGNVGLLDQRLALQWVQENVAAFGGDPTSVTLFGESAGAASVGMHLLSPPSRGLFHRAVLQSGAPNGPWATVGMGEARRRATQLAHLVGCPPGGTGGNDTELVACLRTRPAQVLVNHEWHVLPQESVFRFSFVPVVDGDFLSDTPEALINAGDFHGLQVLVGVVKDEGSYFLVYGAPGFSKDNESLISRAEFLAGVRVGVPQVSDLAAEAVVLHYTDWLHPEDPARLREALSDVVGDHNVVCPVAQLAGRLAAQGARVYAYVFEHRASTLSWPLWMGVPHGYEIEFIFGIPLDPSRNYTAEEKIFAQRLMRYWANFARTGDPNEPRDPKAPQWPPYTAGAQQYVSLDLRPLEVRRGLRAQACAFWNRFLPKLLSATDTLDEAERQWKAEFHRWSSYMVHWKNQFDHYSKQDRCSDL

Regarding `C[C@@H]1CC(=O)CCCCCc2cc(O)cc(O)c2C(=O)O1` [(3R)-5-oxo-de-O-methyllasiodiplodin], the pIC50 on α-glucosidase was 4.26.

As to `CCC(C)/C=C(C)/C=C/C1=CC2=C(Cl)C(=O)C(C)(OC(C)=O)C(=O)C2=CN1CCCC(=O)O` (stereo not drawn) [Isochromophione IX, isochromophilone IX], in the data set on MRSA, the “MIC, inhibition against MRSA” value was 50 µg/mL (≈ 105 µM).

Consider `C/C=C(/C(=O)O)N1C(=O)C=C(C)C1=O` [EtOAc-G-4, pencolide], for which, in the data set on S. typhimurium, the “activity against S. typhimurium” value was “inhibition”. This compound also showed a M. abscessus in the data set with M. abscessus (Mab) of 100 µg/mL. The “activity against S. pyogenes” value in the data set on S. pyogenes is reported as “inhibition”. Moreover, in the data set on C. albicans, the “inhibition of C. albicans” value was “inhibition”. In addition, the “inhibition of S. aureus” value with S. aureus is given as “inhibition”. The minimal inhibitory concentration (MIC) in data set [1] (setting [4]) turned out to be 50 µg/mL (≈ 256 µM). Further, the “inhibition of E. co/i” value in the data set with E. co/i is reported as “inhibition”.

Turning to `COc1ccc(-c2cc3c(c(=O)o2)C[C@]2(O)[C@@]4(C)CCC(=O)C(C)(C)[C@]4(O)CC[C@@]2(C)O3)cc1` [terreulactone C], the pIC50 in data set [2] was 7.55.

On to `CC[C@H](C)/C=C(C)/C=C/C1=CC2=C(Cl)C(=O)[C@](C)(OC(C)=O)C(=O)C2=CN1CCO` [EtOAc-O-7, Isochromophilone VI], for which the “activity against S. typhimurium” value with S. typhimurium is reported as “bioactivity”. The “activity against S. pyogenes” value in the data set with S. pyogenes is reported as “bioactivity”. For the same compound, in data set [1] (IC50 (J774) over MIC (Mtb)), the “selectivity index (SI)” value stood at 10.78. Further, the MIC in [1] (setting [4]) stood at 18.6 µg/mL (≈ 42.9 µM); in data set [1] (text b208, FIG. 11, replicating Mtb, read-out: MIC) it was 18 µg/mL (≈ 41.5 µM). In [1] (conclusion b210), the “bioactivity against replicating Mtb (in words)” value is recorded as “promising bioactivity”. The IC50 is 200 µg/mL (≈ 461 µM) in data set [3] (J774) and approximately 200 µg/mL (≈ 461 µM) in data set [3] (J774, read-out: IC50 (J774)). Also, the “cytotoxicity (in words)” value in data set [3] (conclusion b210, J774) is reported as “low cytotoxicity”.

With `CC[C@H](C)/C=C(C)/C=C/C(=O)Cc1cc(O)c(C)c(O)c1C=O` [EtOAc-D, 2,4-dihyroxy-6-(5,7-dimethyl-2-oxo-trans-3-trans-5-nonadienyl)-3-methylbenzaldehyde], the MIC in [1] (read-out: MIC (Mtb-rep)) is approximately 50 µg/mL (≈ 158 µM). Moreover, in data set [3] (J774, read-out: IC50 (J774)), the IC50 was approximately 200 µg/mL (≈ 632 µM). Further, the “effect on exposed zebrafish embryos” value in the data set with zebrafish embryos is “severely impaired heart morphology and curved trunk”.

Turning to `COc1cc(CC(=O)CO)c(C=O)c(O)c1C` [EtOAc-M-6-3], the M. abscessus in the data set with M. abscessus (Mab) turned out to be 100 µg/mL. Besides, the minimum inhibitory concentration (MIC) in [1] (setting [4]) turned out to be 50 µg/mL (≈ 210 µM).

Turning to `C[C@@H]1CCC[C@H](O)CCCc2cc(O)cc(O)c2C(=O)O1` [(3R,7R)-7-hydroxy-de-O-methyllasiodiplodin], the pIC50 at α-glucosidase was 4.59.

In turn, `COc1cc2c(c(O)c1C)COC2=O` [EtOAc-F-8-3, 4-hydroxy-6-methoxy-5-methyl-1(3H)-isobenzofuranone] had a M. abscessus in the data set on M. abscessus (Mab) of 200 µg/mL. For the same compound, in data set [1] (setting [4]), the MIC was determined as 200 µg/mL (≈ 1030 µM).
